Experiments:
Surinam grass = test: Test E preemergence; type: in vivo, Brachiaria decumbens; details: 21 days, scale 0 to 100
Text: (§1) Seeds of plant species selected from bermudagrass (Cynodon dactylon), Surinam grass (Brachiaria decumbens), crabgrass, large (large crabgrass, Digitaria sanguinalis), crabgrass, naked (naked crabgrass, Digitaria nuda), foxtail, green (green foxtail, Setaria viridis), johnsongrass (Sorghum halepense), kochia (Kochia scoparia), morningglory (pitted morningglory, Ipomoea lacunosa), nutsedge, purple (purple nutsedge, Cyperus rotundus), ragweed (common ragweed, Ambrosia elation), mustard, black (black mustard, Brassica nigra), guineagrass (Panicum maximum), dallisgrass (Paspalum dilatatum), barnyardgrass (Echinochloa crus-galli), sandbur (southern sandbur, Cenchrus echinatus), sowthistle (common sowthistle, Sonchus oleraceous), ryegrass, Italian (Italian ryegrass, Lolium multiflorum), signalgrass (broadleaf signalgrass, Brachiaria platyphylla), dayflower, VA (Virginia (VA) dayflower, Commelina virginica), bluegrass (annual bluegrass, Poa annua), quackgrass (Elytrigia repens), mallow (common mallow, Malva sylvestris), buckwheat, wild (wild buckwheat, Polygonum convolvulus), leafy spurge (Euphorbia esula), common chickweed (Stellaria media), wild poinsettia (Euphorbia heterophylla), pigweed, palmer (palmer pigweed, Amaranthus palmeri), and pigweed (redroot pigweed, Amaranthus retroflexus) were planted into a blend of loam soil and sand and treated preemergence with test chemicals formulated in a non-phytotoxic solvent mixture which included a surfactant.
(§2) Treated plants and controls were maintained in a greenhouse for 21 days, after which time all species were compared to controls and visually evaluated. Plant response ratings, summarized in Table E, are based on a scale of 0 to 100 where 0 is no effect and 100 is complete control. A dash (-) response means no test result.

mustard, black = test: Test E preemergence; type: in vivo, Brassica nigra; details: 21 days, scale 0 to 100
Text: as §1, §2

quackgrass = test: Test E preemergence; type: in vivo, Elytrigia repens; details: 21 days, scale 0 to 100
Text: as §1, §2

pigweed = test: Test E preemergence; type: in vivo, Amaranthus retroflexus; details: 21 days, scale 0 to 100
Text: as §1, §2

crabgrass, Brazil = test: Test F postemergence; type: in vivo, Digitaria horizontalis; details: scale 0 to 100
Text: (§3) Seeds of plant species selected from corn (Zea mays), soybean (Glycine max), velvetleaf (Abutilon theophrasti), lambsquarters (Chenopodium album), wild poinsettia (Euphorbia heterophylla), pigweed, palmer (palmer pigweed, Amaranthus palmeri), common waterhemp (Amaranthus rudis), surinam grass (Brachiaria decumbens), large crabgrass (Digitaria sanguinalis), crabgrass, Brazil (Brazilian crabgrass, Digitaria horizontalis), fall panicum (Panicum dichotomiflorum), giant foxtail (Setaria faberii), green foxtail (Setaria viridis), goosegrass (Eleusine indica), johnsongrass (Sorghum halepense), common ragweed (Ambrosia elation), barnyardgrass (Echinochloa crus-galli), southern sandbur (Cenchrus echinatus), arrowleaf sida (Sida rhombifolia), Italian ryegrass (Lolium multiflorum), dayflower, VA (Virginia (VA) dayflower, Commelina virginica), field bindweed (Convolvulus arvensis), cocklebur (common cocklebur, Xanthium strumarium), morningglory (Ipomoea coccinea), nightshade (eastern black nightshade, Solanum ptycanthum), kochia (Kochia scoparia), yellow nutsedge (Cyperus esculentus), and hairy beggarticks (Bidens pilosa), were planted into a silt loam soil and treated preemergence with test chemicals formulated in a non-phytotoxic solvent mixture which included a surfactant.
(§4) At the same time, plants from these crop and weed species and also horseweed (Canada horseweed, Conyza canadensis), smartweed (ladysthumb smartweed, Polygonum persicaria), waterhemp_RES1, (ALS & Triazine resistant common waterhemp, Amaranthus rudis), and waterhemp_RES2, (ALS & HPPD resistant common waterhemp, Amaranthus rudis) were treated with postemergence applications of test chemicals formulated in the same manner. Plants ranged in height from 2 to 18 cm for postemergence treatments (1- to 4-leaf stage). Treated plants and controls were maintained in a greenhouse for 14 to 21 days, after which time all species were compared to controls and visually evaluated. Plant response ratings, summarized in Table F, are based on a scale of 0 to 100 where 0 is no effect and 100 is complete control. A dash (-) response means no test result.

fall panicum = test: Test F postemergence; type: in vivo, Panicum dichotomiflorum; details: scale 0 to 100
Text: as §3, §4

southern sandbur = test: Test F postemergence; type: in vivo, Cenchrus echinatus; details: scale 0 to 100
Text: as §3, §4

wild poinsettia = test: Test E preemergence; type: in vivo, Euphorbia heterophylla; details: 21 days, scale 0 to 100
Text: as §1, §2

SMILES | Plant response rating, Surinam Grass (Surinam grass; 16 g ai/ha) | Plant response rating, Surinam Grass (Surinam grass; 31 g ai/ha) | Plant response rating, Surinam Grass (Surinam grass; 62 g ai/ha) | Plant response rating, Surinam Grass (Surinam grass; 125 g ai/ha) | Plant response rating, Surinam Grass (Surinam grass; 250 g ai/ha) | Plant response rating, Mustard, Black (mustard, black; 16 g ai/ha) | Plant response rating, Mustard, Black (mustard, black; 31 g ai/ha) | Plant response rating, Mustard, Black (mustard, black; 62 g ai/ha) | Plant response rating, Mustard, Black (mustard, black; 125 g ai/ha) | Plant response rating, Mustard, Black (mustard, black; 250 g ai/ha) | Plant response rating, Quackgrass (quackgrass; 16 g ai/ha) | Plant response rating, Quackgrass (quackgrass; 31 g ai/ha) | Plant response rating, Quackgrass (quackgrass; 62 g ai/ha) | Plant response rating, Quackgrass (quackgrass; 125 g ai/ha) | Plant response rating, Quackgrass (quackgrass; 250 g ai/ha) | Plant response rating, Pigweed (pigweed; 16 g ai/ha) | Plant response rating, Pigweed (pigweed; 31 g ai/ha) | Plant response rating, Pigweed (pigweed; 62 g ai/ha) | Plant response rating, Pigweed (pigweed; 125 g ai/ha) | Plant response rating, Pigweed (pigweed; 250 g ai/ha) | also measured
CCc1cc(C(=O)NCC(F)(F)F)nn1Cc1ccnc(C(F)(F)F)c1 [Compound 78, 5-ethyl-N-(2,2,2-trifluoroethyl)-1-[[(2-trifluoromethyl)-4-pyridinyl]methyl]-1H-pyrazole-3-carboxamide] | 20 | 80 | 90 | 90 | 100 | 70 | 100 | 100 | 100 | 100 | 60 | 95 | 100 | 100 | 100 | 100 | 100 | 100 | 100 | 100 | Plant response rating, Crabgrass, Brazil (crabgrass, Brazil; Postemergence, 31 g ai/ha): 40; Plant response rating, Crabgrass, Brazil (crabgrass, Brazil; Postemergence, 125 g ai/ha): 70; Plant response rating, Crabgrass, Brazil (crabgrass, Brazil; Postemergence, 250 g ai/ha): 90; Plant response rating, Crabgrass, Brazil (crabgrass, Brazil; postemergence, 62 g ai/ha): 40; Plant response rating, Crabgrass, Brazil (crabgrass, Brazil; postemergence, 500 g ai/ha): 95; Plant response rating, Fall Panicum (fall panicum; Postemergence, 31 g ai/ha): 10; Plant response rating, Fall Panicum (fall panicum; Postemergence, 125 g ai/ha): 50; Plant response rating, Fall Panicum (fall panicum; Postemergence, 250 g ai/ha): 90; Plant response rating, Fall Panicum (fall panicum; postemergence, 62 g ai/ha): 20; Plant response rating, Fall Panicum (fall panicum; postemergence, 500 g ai/ha): 95; Plant response rating, Southern Sandbur (southern sandbur; Postemergence, 31 g ai/ha): 0; Plant response rating, Southern Sandbur (southern sandbur; Postemergence, 125 g ai/ha): 30; Plant response rating, Southern Sandbur (southern sandbur; Postemergence, 250 g ai/ha): 80; Plant response rating, Southern Sandbur (southern sandbur; postemergence, 62 g ai/ha): 10; Plant response rating, Southern Sandbur (southern sandbur; postemergence, 500 g ai/ha): 90
CCc1cc(C(=O)NC(C)C)nn1Cc1ccnc(C(F)(F)F)c1 [Compound 103] | 95 | 100 | 100 | 100 | 100 | 100 | 100 | 100 | 100 | 100 | 95 | 98 | 100 | 100 | 100 | 100 | 100 | 100 | 100 | 100 | Plant response rating, Wild Poinsettia (wild poinsettia; 16 g ai/ha): 80; Plant response rating, Wild Poinsettia (wild poinsettia; 31 g ai/ha): 95; Plant response rating, Wild Poinsettia (wild poinsettia; 62 g ai/ha): 100; Plant response rating, Wild Poinsettia (wild poinsettia; 125 g ai/ha): 100; Plant response rating, Wild Poinsettia (wild poinsettia; 250 g ai/ha): 100
CCCc1cc(C(=O)NCC(F)(F)F)nn1Cc1ccnc(C(F)(F)F)c1 [Compound 105] | 35 | 40 | 80 | 95 | 100 | 100 | 100 | 100 | 100 | 100 | 65 | 90 | 98 | 100 | 100 | 100 | 100 | 100 | 100 | 100 | Plant response rating, Wild Poinsettia (wild poinsettia; 16 g ai/ha): 50; Plant response rating, Wild Poinsettia (wild poinsettia; 31 g ai/ha): 80; Plant response rating, Wild Poinsettia (wild poinsettia; 62 g ai/ha): 100; Plant response rating, Wild Poinsettia (wild poinsettia; 125 g ai/ha): 100; Plant response rating, Wild Poinsettia (wild poinsettia; 250 g ai/ha): 100; Plant response rating, Crabgrass, Brazil (crabgrass, Brazil; Postemergence, 31 g ai/ha): 30; Plant response rating, Crabgrass, Brazil (crabgrass, Brazil; Postemergence, 125 g ai/ha): 50; Plant response rating, Crabgrass, Brazil (crabgrass, Brazil; Postemergence, 250 g ai/ha): 70; Plant response rating, Crabgrass, Brazil (crabgrass, Brazil; postemergence, 62 g ai/ha): 35; Plant response rating, Crabgrass, Brazil (crabgrass, Brazil; postemergence, 500 g ai/ha): 90; Plant response rating, Fall Panicum (fall panicum; Postemergence, 31 g ai/ha): 10; Plant response rating, Fall Panicum (fall panicum; Postemergence, 125 g ai/ha): 30; Plant response rating, Fall Panicum (fall panicum; Postemergence, 250 g ai/ha): 80; Plant response rating, Fall Panicum (fall panicum; postemergence, 62 g ai/ha): 20; Plant response rating, Fall Panicum (fall panicum; postemergence, 500 g ai/ha): 90; Plant response rating, Southern Sandbur (southern sandbur; Postemergence, 31 g ai/ha): 0; Plant response rating, Southern Sandbur (southern sandbur; Postemergence, 125 g ai/ha): 30; Plant response rating, Southern Sandbur (southern sandbur; Postemergence, 250 g ai/ha): 70; Plant response rating, Southern Sandbur (southern sandbur; postemergence, 62 g ai/ha): 10; Plant response rating, Southern Sandbur (southern sandbur; postemergence, 500 g ai/ha): 90
CCOc1cc(C(=O)NC(C)C)nn1Cc1ccnc(C(F)(F)F)c1 [Compound 188] |  |  |  |  |  |  |  |  |  |  |  |  |  |  |  |  |  |  |  |  | Plant response rating, Crabgrass, Brazil (crabgrass, Brazil; Postemergence, 31 g ai/ha): 20; Plant response rating, Crabgrass, Brazil (crabgrass, Brazil; Postemergence, 125 g ai/ha): 75; Plant response rating, Crabgrass, Brazil (crabgrass, Brazil; Postemergence, 250 g ai/ha): 90; Plant response rating, Crabgrass, Brazil (crabgrass, Brazil; postemergence, 62 g ai/ha): 30; Plant response rating, Crabgrass, Brazil (crabgrass, Brazil; postemergence, 500 g ai/ha): 95; Plant response rating, Fall Panicum (fall panicum; Postemergence, 31 g ai/ha): 20; Plant response rating, Fall Panicum (fall panicum; Postemergence, 125 g ai/ha): 55; Plant response rating, Fall Panicum (fall panicum; Postemergence, 250 g ai/ha): 75; Plant response rating, Fall Panicum (fall panicum; postemergence, 62 g ai/ha): 20; Plant response rating, Fall Panicum (fall panicum; postemergence, 500 g ai/ha): 90; Plant response rating, Southern Sandbur (southern sandbur; Postemergence, 31 g ai/ha): 0; Plant response rating, Southern Sandbur (southern sandbur; Postemergence, 125 g ai/ha): 50; Plant response rating, Southern Sandbur (southern sandbur; Postemergence, 250 g ai/ha): 70; Plant response rating, Southern Sandbur (southern sandbur; postemergence, 62 g ai/ha): 20; Plant response rating, Southern Sandbur (southern sandbur; postemergence, 500 g ai/ha): 90
CCOc1cc(C(=O)NC2CC2)nn1Cc1ccnc(C(F)(F)F)c1 [Compound 189] | 25 | 80 | 100 |  |  | 100 | 100 | 100 |  |  | 35 | 75 | 100 |  |  | 100 | 100 | 100 |  |  | Plant response rating, Surinam Grass (Surinam grass; 4 g ai/ha): 0; Plant response rating, Surinam Grass (Surinam grass; 8 g ai/ha): 0; Plant response rating, Mustard, Black (mustard, black; 4 g ai/ha): 95; Plant response rating, Mustard, Black (mustard, black; 8 g ai/ha): 98; Plant response rating, Quackgrass (quackgrass; 4 g ai/ha): 0; Plant response rating, Quackgrass (quackgrass; 8 g ai/ha): 0; Plant response rating, Wild Poinsettia (wild poinsettia; 4 g ai/ha): 10; Plant response rating, Wild Poinsettia (wild poinsettia; 8 g ai/ha): 25; Plant response rating, Wild Poinsettia (wild poinsettia; 16 g ai/ha): 65; Plant response rating, Wild Poinsettia (wild poinsettia; 31 g ai/ha): 95; Plant response rating, Wild Poinsettia (wild poinsettia; 62 g ai/ha): 100; Plant response rating, Pigweed (pigweed; 4 g ai/ha): 60; Plant response rating, Pigweed (pigweed; 8 g ai/ha): 60

Reference: US20150105252A1, “SUBSTITUTED PYRAZOLES AS HERBICIDES” (E I DU PONT DE NEMOURS AND COMPANY, priority 2013, published 2015)
